Here are results for 4 compounds from patent US11905294B2, “Imidazo[1,5-a]pyrazine derivatives as PI3Kδ inhibitors” (BEIGENE, LTD., priority 2017, dated 2024).

Series [1] addresses PI3K (p110δ/p85α) (Homo sapiens, UniProt O00329). Description: PI3Kδ assay (ADP-Glo Kinase Assay). Type of series: biochemical. To be noted: recombinant enzyme; IC50 (nM) or max inhibition (%) at 0.5 μM. In short, it runs like this:
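Recombinant p110δ/p85α with lipid substrate and serially diluted compound, 0.5 hr RT preincubation; ATP-started reaction ran 1 hr at RT. ADP formed read by ADP-Glo luminescence; IC50 from four-parameter logistic fit of residual activity.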

Series [2] concerns the target PI3K (p110α/p85α) (Homo sapiens, UniProt P42336). Briefly: PI3Kα assay (ADP-Glo Kinase Assay). Type of series: biochemical. The note with it: recombinant enzyme; IC50 (nM) or max inhibition (%) at 0.5 μM.
For series [3], the target named is PI3K (p110β/p85α) (Homo sapiens, UniProt P42338). Briefly: PI3Kβ assay (ADP-Glo Kinase Assay). Type of series: biochemical.
For series [4], the target named is PI3K (p110γ) (Homo sapiens, UniProt P48736). Briefly: PI3Kγ assay (ADP-Glo Kinase Assay). Type of series: biochemical. To be noted: recombinant enzyme; IC50 (nM) or max inhibition (%) at 0.5 μM.
The nature of series [5]: Pharmacokinetic properties in Sprague-Dawley rats after intravenous (IV) and oral (PO) administration. Type of series: in vivo. The note with it: rat; for AUC(0-inf) / clearance / half-life / Vd / Cmax / Tmax / bioavailability: male, Sprague-Dawley, plasma; for Vd: read-out: VdSS. On the procedure:
III. Pharmacokinetic Properties of Compounds in Sprague-Dawley Rats After Intravenous (IV) and Oral Administrations (PO)
The injection dosing solution was prepared as follows: 1.0 mg of a test compound was weighed and dissolved in 0.32 mL of dimethyl acetamide (DMA). The solution was then further diluted by 0.36 mL of ethanol and 0.32 mL of propylene glycol. The final concentration of the test compound was 1.0 mg·mL^−1.
The oral dosing solution was prepared as follows: 5.0 mg of a test compound was weighed and dispersed in […] of 0.5% methyl cellulose (MC). The final concentration of the test compound is 1 mg·mL^−1.
Male Sprague-Dawley rats (also summarized in Table 2) were housed in solid bottom polypropylene cages with sterilized bedding and receive sterilized diet and sterilized water. The room was controlled and monitored for humidity (targeted mean range 40% to 70%) and temperature (targeted mean range 18° C. to 26° C.) with 10 to 20 air changes/hour. The light cycle was maintained at 12-h light and 12-h dark. Only animals that appeared to be healthy were selected for this study based on overall health, body weight, or other relevant information.
Three rats were given a single IV dose of 1 mg·kg^−1 via tail vein injection and other three rats were given a single oral dose of 5 or 10 mg·kg^−1. The dosing solutions were freshly prepared prior to dose administration. The actual body weights and actual volume injected were recorded accordingly. Four hours after dosing, the rats were allowed to intake food.
Blood samples (˜150 μL) were collected at different times from the jugular vein catheter into EDTA-K2 coated tubes. Whole blood was processed by centrifugation at 3000 g for 10 min. Plasma samples were collected and kept at −80° C. freezer prior to analysis. The blood sampling time was recorded accordingly.
The dose samples of IV and PO were diluted with MeOH: H2O (4:1, v/v) to achieve the concentration of 2 μg·mL^−1, respectively. Then, 2.5 μL of the diluted samples were added with 47.5 μL blank plasma, and then were handled as the plasma sample procedure. An aliquot of 10 μL of the mixture was injected into the LC-MS/MS system.

The mark [6] stands for this setting: read-out: Enzyme activity IC50 PI3Kβ.

Read-outs that look alike come from different tables or passages of the source.

Sequence of PI3K (p110δ/p85α) (O00329 whole entry): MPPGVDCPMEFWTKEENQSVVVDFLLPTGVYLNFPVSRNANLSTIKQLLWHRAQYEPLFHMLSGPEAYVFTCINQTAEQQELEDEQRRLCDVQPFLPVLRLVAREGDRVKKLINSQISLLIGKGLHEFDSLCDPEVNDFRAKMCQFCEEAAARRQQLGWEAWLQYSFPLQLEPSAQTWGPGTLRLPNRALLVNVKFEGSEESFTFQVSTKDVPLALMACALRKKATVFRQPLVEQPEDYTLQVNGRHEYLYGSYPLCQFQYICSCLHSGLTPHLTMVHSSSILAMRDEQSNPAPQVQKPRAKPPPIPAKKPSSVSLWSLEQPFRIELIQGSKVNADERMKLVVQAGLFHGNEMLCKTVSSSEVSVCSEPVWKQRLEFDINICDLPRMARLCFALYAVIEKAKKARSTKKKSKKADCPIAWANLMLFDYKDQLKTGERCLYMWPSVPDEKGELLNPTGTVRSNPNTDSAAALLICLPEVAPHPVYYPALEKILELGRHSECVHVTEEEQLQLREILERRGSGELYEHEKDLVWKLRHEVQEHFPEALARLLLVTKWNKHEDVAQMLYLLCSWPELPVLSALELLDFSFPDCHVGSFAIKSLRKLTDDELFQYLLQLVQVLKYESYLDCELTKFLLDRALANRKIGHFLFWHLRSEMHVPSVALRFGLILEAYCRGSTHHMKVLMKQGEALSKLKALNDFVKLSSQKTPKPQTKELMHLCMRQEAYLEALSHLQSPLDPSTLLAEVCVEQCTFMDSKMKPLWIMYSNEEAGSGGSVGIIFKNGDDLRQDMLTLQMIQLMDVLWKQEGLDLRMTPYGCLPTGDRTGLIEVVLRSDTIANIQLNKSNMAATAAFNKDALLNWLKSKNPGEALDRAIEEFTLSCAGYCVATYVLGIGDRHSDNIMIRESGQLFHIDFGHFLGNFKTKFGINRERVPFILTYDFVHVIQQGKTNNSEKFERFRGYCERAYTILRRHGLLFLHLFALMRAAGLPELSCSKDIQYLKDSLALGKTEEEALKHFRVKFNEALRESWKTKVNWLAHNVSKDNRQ
Sequence of PI3K (p110δ/p85α) (P27986 whole entry partner): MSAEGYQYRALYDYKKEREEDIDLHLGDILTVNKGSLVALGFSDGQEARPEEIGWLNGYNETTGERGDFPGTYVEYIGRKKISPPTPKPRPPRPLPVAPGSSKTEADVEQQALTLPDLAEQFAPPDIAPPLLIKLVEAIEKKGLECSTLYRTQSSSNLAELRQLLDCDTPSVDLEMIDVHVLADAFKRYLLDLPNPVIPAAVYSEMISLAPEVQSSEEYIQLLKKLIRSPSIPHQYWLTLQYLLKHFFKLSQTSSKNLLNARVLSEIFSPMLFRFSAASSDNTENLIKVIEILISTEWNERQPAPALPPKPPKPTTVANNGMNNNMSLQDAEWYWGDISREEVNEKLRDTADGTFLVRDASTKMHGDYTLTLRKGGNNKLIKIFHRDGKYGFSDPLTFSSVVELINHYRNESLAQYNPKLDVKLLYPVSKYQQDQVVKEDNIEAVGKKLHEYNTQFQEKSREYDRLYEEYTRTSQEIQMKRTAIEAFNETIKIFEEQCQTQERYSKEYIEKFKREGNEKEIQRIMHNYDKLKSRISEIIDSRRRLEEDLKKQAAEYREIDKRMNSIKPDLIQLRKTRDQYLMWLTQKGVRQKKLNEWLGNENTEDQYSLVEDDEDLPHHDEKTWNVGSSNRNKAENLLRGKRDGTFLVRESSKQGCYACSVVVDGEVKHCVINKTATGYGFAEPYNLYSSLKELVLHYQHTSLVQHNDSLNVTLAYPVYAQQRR
Sequence of PI3K (p110β/p85α) (P42338 whole entry): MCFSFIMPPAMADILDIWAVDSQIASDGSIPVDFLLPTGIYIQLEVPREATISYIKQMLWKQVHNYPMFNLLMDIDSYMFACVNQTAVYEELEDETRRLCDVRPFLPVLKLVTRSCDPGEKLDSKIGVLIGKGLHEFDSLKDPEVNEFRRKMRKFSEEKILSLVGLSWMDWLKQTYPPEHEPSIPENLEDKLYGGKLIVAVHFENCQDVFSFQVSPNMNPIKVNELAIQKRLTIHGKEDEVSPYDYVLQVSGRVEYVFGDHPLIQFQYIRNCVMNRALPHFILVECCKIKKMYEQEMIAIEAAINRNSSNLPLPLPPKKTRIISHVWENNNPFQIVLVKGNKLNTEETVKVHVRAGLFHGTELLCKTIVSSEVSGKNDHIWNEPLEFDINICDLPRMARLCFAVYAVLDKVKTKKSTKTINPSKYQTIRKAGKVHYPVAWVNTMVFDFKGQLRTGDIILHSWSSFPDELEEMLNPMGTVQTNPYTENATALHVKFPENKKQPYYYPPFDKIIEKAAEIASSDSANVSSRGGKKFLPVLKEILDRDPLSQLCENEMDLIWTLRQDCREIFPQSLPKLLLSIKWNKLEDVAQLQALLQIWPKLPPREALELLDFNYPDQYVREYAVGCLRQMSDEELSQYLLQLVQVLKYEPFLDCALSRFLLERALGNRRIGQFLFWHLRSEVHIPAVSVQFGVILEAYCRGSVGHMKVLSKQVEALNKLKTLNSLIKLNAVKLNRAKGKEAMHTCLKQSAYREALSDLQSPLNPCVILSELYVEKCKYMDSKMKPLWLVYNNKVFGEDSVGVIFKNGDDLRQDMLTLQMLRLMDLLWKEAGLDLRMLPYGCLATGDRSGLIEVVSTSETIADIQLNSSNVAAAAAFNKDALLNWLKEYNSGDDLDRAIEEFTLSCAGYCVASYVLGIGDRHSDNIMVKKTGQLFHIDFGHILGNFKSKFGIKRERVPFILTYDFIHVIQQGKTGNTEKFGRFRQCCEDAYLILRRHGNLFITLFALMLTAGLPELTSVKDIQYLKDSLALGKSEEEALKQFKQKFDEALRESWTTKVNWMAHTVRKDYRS
Sequence of PI3K (p110β/p85α) (P27986 whole entry partner): as the sequence (P27986 whole entry partner) above
Sequence of PI3K (p110γ) (P48736 whole entry): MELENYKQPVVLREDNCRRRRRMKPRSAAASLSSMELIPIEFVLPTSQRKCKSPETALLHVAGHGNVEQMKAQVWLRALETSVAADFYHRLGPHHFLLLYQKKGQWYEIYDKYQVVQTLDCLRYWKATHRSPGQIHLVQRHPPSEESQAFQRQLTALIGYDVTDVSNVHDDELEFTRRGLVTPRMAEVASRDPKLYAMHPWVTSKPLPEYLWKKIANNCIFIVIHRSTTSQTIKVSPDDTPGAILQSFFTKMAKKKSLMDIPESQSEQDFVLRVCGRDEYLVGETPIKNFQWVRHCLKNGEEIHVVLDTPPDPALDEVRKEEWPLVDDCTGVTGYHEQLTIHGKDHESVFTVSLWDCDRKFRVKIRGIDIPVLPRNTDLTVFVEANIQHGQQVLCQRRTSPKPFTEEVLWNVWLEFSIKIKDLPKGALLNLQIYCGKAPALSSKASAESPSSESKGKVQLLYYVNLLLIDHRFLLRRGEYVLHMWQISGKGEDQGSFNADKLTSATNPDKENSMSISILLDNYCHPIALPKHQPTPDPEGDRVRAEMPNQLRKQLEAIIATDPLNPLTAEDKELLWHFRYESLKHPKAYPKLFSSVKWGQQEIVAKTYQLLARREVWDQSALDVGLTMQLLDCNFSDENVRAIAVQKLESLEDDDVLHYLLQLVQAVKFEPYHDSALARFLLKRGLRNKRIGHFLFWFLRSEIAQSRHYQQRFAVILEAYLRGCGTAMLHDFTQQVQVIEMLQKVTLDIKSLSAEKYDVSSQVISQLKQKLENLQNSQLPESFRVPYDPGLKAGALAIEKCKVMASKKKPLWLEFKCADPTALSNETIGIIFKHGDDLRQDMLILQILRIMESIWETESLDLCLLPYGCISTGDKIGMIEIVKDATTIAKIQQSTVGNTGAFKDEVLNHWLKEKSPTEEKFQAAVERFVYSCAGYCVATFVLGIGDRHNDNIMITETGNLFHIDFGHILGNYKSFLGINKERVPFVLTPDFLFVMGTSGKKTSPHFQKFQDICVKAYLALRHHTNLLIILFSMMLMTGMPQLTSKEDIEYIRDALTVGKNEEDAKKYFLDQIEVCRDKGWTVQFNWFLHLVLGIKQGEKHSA
Sequence of PI3K (p110α/p85α) (P42336 whole entry): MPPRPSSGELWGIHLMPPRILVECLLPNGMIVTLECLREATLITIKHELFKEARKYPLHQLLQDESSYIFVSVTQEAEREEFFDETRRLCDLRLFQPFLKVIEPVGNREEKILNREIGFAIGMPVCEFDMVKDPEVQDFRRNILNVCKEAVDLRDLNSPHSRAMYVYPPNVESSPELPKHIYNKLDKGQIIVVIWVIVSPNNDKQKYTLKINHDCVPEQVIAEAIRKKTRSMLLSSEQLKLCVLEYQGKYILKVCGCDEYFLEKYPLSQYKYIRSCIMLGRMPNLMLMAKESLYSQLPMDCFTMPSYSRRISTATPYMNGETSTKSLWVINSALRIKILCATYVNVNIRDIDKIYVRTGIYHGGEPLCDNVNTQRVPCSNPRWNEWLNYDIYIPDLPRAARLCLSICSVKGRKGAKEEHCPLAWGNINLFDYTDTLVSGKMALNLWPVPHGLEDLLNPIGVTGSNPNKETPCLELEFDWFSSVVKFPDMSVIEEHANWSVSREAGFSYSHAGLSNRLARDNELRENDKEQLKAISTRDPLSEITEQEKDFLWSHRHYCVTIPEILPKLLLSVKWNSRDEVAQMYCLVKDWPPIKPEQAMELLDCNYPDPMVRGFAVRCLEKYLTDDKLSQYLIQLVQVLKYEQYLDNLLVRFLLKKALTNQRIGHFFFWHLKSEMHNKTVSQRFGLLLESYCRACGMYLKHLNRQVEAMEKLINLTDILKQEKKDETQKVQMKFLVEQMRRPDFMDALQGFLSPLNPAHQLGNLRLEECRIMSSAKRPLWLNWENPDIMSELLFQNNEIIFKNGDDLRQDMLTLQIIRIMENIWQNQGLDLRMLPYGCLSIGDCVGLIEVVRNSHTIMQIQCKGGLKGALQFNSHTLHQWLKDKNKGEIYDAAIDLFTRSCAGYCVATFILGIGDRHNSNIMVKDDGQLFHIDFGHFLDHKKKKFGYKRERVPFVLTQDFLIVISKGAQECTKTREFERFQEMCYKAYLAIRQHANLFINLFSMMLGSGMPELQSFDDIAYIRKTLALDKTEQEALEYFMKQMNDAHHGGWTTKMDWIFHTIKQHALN
Sequence of PI3K (p110α/p85α) (P27986 whole entry partner): as the sequence (P27986 whole entry partner) above

On to `Cc1nc([C@@H](C)c2cc(Cl)c(F)c(C(=O)N[C@H]3CC[C@H](O)CC3)c2OC(C)C)n2ccnc(N)c12` [Compound 60, 3((S)-1-(8-amino-1-methylimidazo[1,5-a]pyrazin-3-yl)ethyl)-5-chloro-6-fluoro-N-((trans)-4-hydroxycyclohexyl)-2-isopropoxybenzamide], for which the IC50 in series [1] is 0.95 nM. In series [2], the IC50 came to 11000 nM. Besides, the IC50 in series [3] (setting [6]) stood at 35000 nM. The IC50 in series [4] is 6300 nM. In series [5] (1 mg/kg, IV 1 mpk), the AUC(0-inf) turned out to be 218 ng·h/mL, the clearance stood at 76.6 mL/min/kg, the half-life is 0.6 h and the Vd was determined as 3.3 L/kg. Also, in series [5] (5 mg/kg, PO 5 mpk), the AUC(0-inf) was 159 ng·h/mL, the concentration peaked (Cmax) at 133 ng/mL, the time of peak concentration (Tmax) was 0.3 h and the half-life was 2 h. Moreover, the bioavailability in series [5] (5 mg·kg^−1, PO 5 mpk vs IV 1 mpk) was 14.6%.
`Cc1nc([C@@H](C)c2cc(Cl)c(F)c(C(=O)N[C@H]3CC[C@H](O)C3)c2OC(C)C)n2ccnc(N)c12` [Compound 71, 3-((S)-1-(8-amino-1-methylimidazo[1,5-a]pyrazin-3-yl)ethyl)-5-chloro-6-fluoro-N-((1S,3S)-3-hydroxycyclopentyl)-2-isopropoxybenzamide]: the IC50 in series [1] was 1.4 nM; in series [2], 14000 nM; in series [3] (setting [6]) it was 13000 nM; in series [4] it was 3400 nM.
`Cc1nc([C@@H](C)c2cc(Cl)c(F)c(C(=O)NCCN3CCN(C)CC3)c2OC(C)C)n2ccnc(N)c12` [Compound 73, (S)-3-(1-(8-amino-1-methylimidazo[1,5-a]pyrazin-3-yl)ethyl)-5-chloro-6-fluoro-2-isopropoxy-N-(2-(4-methylpiperazin-1-yl)ethyl)benzamide]: the IC50 in series [1] stood at 2.8 nM. Besides, the IC50 in series [2] came to 14000 nM. Also, the IC50 in series [3] (setting [6]) was 14000 nM. Besides, the IC50 in series [4] worked out at 9500 nM. In series [5] (1 mg/kg, IV 1 mpk), the AUC(0-inf) was determined as 194 ng·h/mL, the clearance worked out at 86.6 mL/min/kg, the half-life is 8.2 h and the Vd is 59.4 L/kg. Besides, in series [5] (10 mg/kg, PO 10 mpk), the AUC(0-inf) was found to be 918 ng·h/mL, the Cmax is 220 ng/mL, the Tmax was 1.5 h and the half-life is 5.6 h. For the same compound, the bioavailability in series [5] (10 mg·kg^−1, PO 10 mpk vs IV 1 mpk) amounted to 34.9%. In addition, the “half-life (in words)” value in series [5] (in vivo) was “unexpected long half-life”.
For “(S)-3-(1-(8-amino-1-methylimidazol[1,5-a]pyrazin-3-yl)ethyl)-5-chloro-6-fluoro-2-isopropoxy-N-(4-methoxyphenyl)benzamide [Compound 29]”, the IC50 in series [1] was 1.1 nM; in series [2] it was 11000 nM; in series [3] (recombinant enzyme, 2 hrs kinase reaction, IC50 (nM) or max inhibition (%) at 0.5 μM), 9900 nM; in series [4] it was 2100 nM.
